What was measured:
[1] = system: B/Malaysia/2506/2004 (B-Mal); assay type: cell-based, influenza virus
[2] = system: Escherichia coli BL21(DE3); experiment: Antibacterial growth assay (OD600); conditions: for Bacterial growth relative to medium, E. coli, replicate 1 / Bacterial growth relative to medium, E. coli, replicate 2 / Bacterial growth relative to medium, E. coli, replicate 3: OD600, medium = 100, MH II broth, 37 °C, peptide 200 µM mixed 50 µL + 50 µL with bacteria, Figure 7: 48 h; for Bacterial growth relative to medium, E. coli, replicate 1: replicate column 1; for Bacterial growth relative to medium, E. coli, replicate 2: replicate column 2; for Bacterial growth relative to medium, E. coli, replicate 3: replicate column 3
[3] = system: Pseudomonas aeruginosa DSM 1117; experiment: Antibacterial growth assay (OD600); conditions: for Bacterial growth relative to medium, P. aeruginosa (1117), replicate 1 / Bacterial growth relative to medium, P. aeruginosa (1117), replicate 2 / Bacterial growth relative to medium, P. aeruginosa (1117), replicate 3: OD600, medium = 100, MH II broth, 37 °C, peptide 200 µM mixed 50 µL + 50 µL with bacteria, Figure 7: 48 h; for Bacterial growth relative to medium, P. aeruginosa (1117), replicate 1: replicate column 1; for Bacterial growth relative to medium, P. aeruginosa (1117), replicate 2: replicate column 2; for Bacterial growth relative to medium, P. aeruginosa (1117), replicate 3: replicate column 3
[4] = system: panel of seven bacterial strains; experiment: Antibacterial growth assay (OD600), statements on the whole panel; assay type: cell-based; conditions: growth after 48 h
A/Hessen/1/2003 (H3N2) = assay type: cell-based, influenza virus
[5] = system: Staphylococcus aureus DSM 2569; experiment: Antibacterial growth assay (OD600); conditions: for Bacterial growth relative to medium, S. aureus, replicate 1 / Bacterial growth relative to medium, S. aureus, replicate 2 / Bacterial growth relative to medium, S. aureus, replicate 3: OD600, medium = 100, MH II broth, 37 °C, peptide 200 µM mixed 50 µL + 50 µL with bacteria, Figure 7: 48 h; for Bacterial growth relative to medium, S. aureus, replicate 1: replicate column 1; for Bacterial growth relative to medium, S. aureus, replicate 2: replicate column 2; for Bacterial growth relative to medium, S. aureus, replicate 3: replicate column 3
[6] = system: Listeria monocytogenes DSM 20600; experiment: Antibacterial growth assay (OD600); conditions: for Bacterial growth relative to medium, L. monocytogenes, replicate 1 / Bacterial growth relative to medium, L. monocytogenes, replicate 2 / Bacterial growth relative to medium, L. monocytogenes, replicate 3: OD600, medium = 100, MH II broth, 37 °C, peptide 200 µM mixed 50 µL + 50 µL with bacteria, Figure 7: 48 h; for Bacterial growth relative to medium, L. monocytogenes, replicate 1: replicate column 1; for Bacterial growth relative to medium, L. monocytogenes, replicate 2: replicate column 2; for Bacterial growth relative to medium, L. monocytogenes, replicate 3: replicate column 3; for Antibacterial activity (in words): L. monocytogenes DSM 20600, growth after 48 h
Description: (§1) Cryo-conserved cultures of selected bacterial strains (Table 4) were transferred to Tryptic Soy Agar (TSA) plates (Carl Roth) with a sterile inoculation loop, sealed with Parafilm (BEMIS, Neenah, WI, USA), and incubated for 1–2 days at 37 °C depending on growth. Single colonies were picked and transferred into 2–3 mL of the Mueller–Hinton II (MH II) broth (BD, Heidelberg, Germany). The bacteria were cultivated overnight, subcultured on fresh medium and grown for 3–4 h before testing at 37 °C, with shaking at 180 rpm. We measured the optical density at 600 nm (OD600) of 1 mL of the bacterial suspensions in polystyrene cuvettes (SARSTED, Nümbrecht, Germany) using an Ultrospec 10 spectrophotometer (Biochrome, Cambridge, UK). We then diluted them with the MH II medium to the preferred OD600 (Table 2). The peptides were dissolved in DMSO to generate 10 mmol/L stocks and diluted with the MH II medium to 200 µM before the assay. We used 10 µg/mL (~40 µg/mL for S. epidermidis) gentamicin and colistin (Sigma-Aldrich, Taufkirchen, Germany), DMSO and the medium only as controls. The bacteria were transferred to 96-multiwell plates with a final volume of 100 µL per well (50 µL bacterial suspension, and 50 µL test peptide). The OD600 was measured at 0, 24 and 48 h using a BioTek Eon microplate reader followed by analysis with Gen5 v2.09.

[7] = system: Staphylococcus epidermidis DSM 28319; experiment: Antibacterial growth assay (OD600); conditions: for Bacterial growth relative to medium, S. epidermidis, replicate 1 / Bacterial growth relative to medium, S. epidermidis, replicate 2 / Bacterial growth relative to medium, S. epidermidis, replicate 3: OD600, medium = 100, MH II broth, 37 °C, peptide 200 µM mixed 50 µL + 50 µL with bacteria, Figure 7: 48 h; for Bacterial growth relative to medium, S. epidermidis, replicate 1: replicate column 1; for Bacterial growth relative to medium, S. epidermidis, replicate 2: replicate column 2; for Bacterial growth relative to medium, S. epidermidis, replicate 3: replicate column 3
[8] = system: Pseudomonas aeruginosa DSM 50071; experiment: Antibacterial growth assay (OD600); conditions: OD600, medium = 100, MH II broth, 37 °C, peptide 200 µM mixed 50 µL + 50 µL with bacteria, Figure 7: 48 h; for Bacterial growth relative to medium, P. aeruginosa (50071), replicate 1: replicate column 1; for Bacterial growth relative to medium, P. aeruginosa (50071), replicate 2: replicate column 2; for Bacterial growth relative to medium, P. aeruginosa (50071), replicate 3: replicate column 3
Description: as §1

[9] = system: Micrococcus luteus DSM 20030; experiment: Antibacterial growth assay (OD600); conditions: for Bacterial growth relative to medium, M. luteus, replicate 1 / Bacterial growth relative to medium, M. luteus, replicate 2 / Bacterial growth relative to medium, M. luteus, replicate 3: OD600, medium = 100, MH II broth, 37 °C, peptide 200 µM mixed 50 µL + 50 µL with bacteria, Figure 7: 48 h; for Bacterial growth relative to medium, M. luteus, replicate 1: replicate column 1; for Bacterial growth relative to medium, M. luteus, replicate 2: replicate column 2; for Bacterial growth relative to medium, M. luteus, replicate 3: replicate column 3
A/Hamburg/05/2009 (H1N1) = assay type: cell-based, influenza virus

| Sequence | Viability of infected cells relative to aprotinin, Replicate 1 [1] | Viability of infected cells relative to aprotinin, Replicate 2 [1] | Viability of infected cells relative to aprotinin, Replicate 3 [1] | Bacterial growth relative to medium, E. coli, replicate 1 [2] | Bacterial growth relative to medium, E. coli, replicate 2 [2] | Bacterial growth relative to medium, E. coli, replicate 3 [2] | Bacterial growth relative to medium, P. aeruginosa (1117), replicate 1 [3] | Bacterial growth relative to medium, P. aeruginosa (1117), replicate 2 [3] | Bacterial growth relative to medium, P. aeruginosa (1117), replicate 3 [3] | Antibacterial activity over the panel (in words) [4] | Viability of infected cells relative to aprotinin, Replicate 1 (A/Hessen/1/2003 (H3N2)) | Viability of infected cells relative to aprotinin, Replicate 2 (A/Hessen/1/2003 (H3N2)) | Bacterial growth relative to medium, S. aureus, replicate 1 [5] | Bacterial growth relative to medium, S. aureus, replicate 2 [5] | Bacterial growth relative to medium, S. aureus, replicate 3 [5] | Bacterial growth relative to medium, L. monocytogenes, replicate 1 [6] | Bacterial growth relative to medium, L. monocytogenes, replicate 2 [6] | Bacterial growth relative to medium, L. monocytogenes, replicate 3 [6] | Bacterial growth relative to medium, S. epidermidis, replicate 1 [7] | Bacterial growth relative to medium, S. epidermidis, replicate 2 [7] | also measured |
| --- | --- | --- | --- | --- | --- | --- | --- | --- | --- | --- | --- | --- | --- | --- | --- | --- | --- | --- | --- | --- | --- |
| SLLGLLDVVKSKVGQTGLL [LS-AMP-A18] | 0.06546 | 0.04295 | 0.0512 | 110.572 | 96.6395 | 68.0936 | 87.8796 | 68.3606 | 68.2151 | largely inactive | 0.1207 | 0.1378 | 75 | 66.2525 | 80.9203 | 145.215 | 105.128 | 13.7733 | 95.0126 | 84.2348 | Bacterial growth relative to medium, S. epidermidis, replicate 3 [7]: 89.1297; Bacterial growth relative to medium, P. aeruginosa (50071), replicate 1 [8]: 102.836; Bacterial growth relative to medium, P. aeruginosa (50071), replicate 2 [8]: 105.708; Bacterial growth relative to medium, P. aeruginosa (50071), replicate 3 [8]: 87.0813; Bacterial growth relative to medium, M. luteus, replicate 1 [9]: 143.237; Bacterial growth relative to medium, M. luteus, replicate 2 [9]: 115.766; Bacterial growth relative to medium, M. luteus, replicate 3 [9]: 65.7102; Viability of infected cells relative to aprotinin, Replicate 1 (A/Hamburg/05/2009 (H1N1)): 0.03159; Viability of infected cells relative to aprotinin, Replicate 2 (A/Hamburg/05/2009 (H1N1)): 0.03911; Viability of infected cells relative to aprotinin, Replicate 3 (A/Hamburg/05/2009 (H1N1)): 0.01637 |
| SLLGLLDVVKNKVGQIG [LS-AMP-A4] | 0.05108 | 0.07356 | 0.0764 | 63.5471 | 64.6002 | 38.7121 | 67.901 | 83.7452 | 58.9242 | inhibited the growth of most of the bacteria except two | 0.1134 | 0.06953 | 64.8588 | 69.2609 | 80.5088 | 47.529 | 64.3679 | 81.7792 | 50.7409 | 49.8658 | Antibacterial activity (in words) ([2]; E. coli BL21(DE3), growth after 48 h): able to decrease the growth; Viability of infected cells relative to aprotinin, Replicate 3 (A/Hessen/1/2003 (H3N2)): 0.04762; Antibacterial activity (in words) ([5]; S. aureus DSM 2569, growth after 48 h): able to decrease the growth; Antibacterial activity (in words) [6]: able to decrease the growth; Bacterial growth relative to medium, S. epidermidis, replicate 3 [7]: 70.1306; Antibacterial activity (in words) ([7]; S. epidermidis DSM 28319, growth after 48 h): able to decrease the growth; Bacterial growth relative to medium, P. aeruginosa (50071), replicate 1 [8]: 97.6103; Bacterial growth relative to medium, P. aeruginosa (50071), replicate 2 [8]: 110.944; Bacterial growth relative to medium, P. aeruginosa (50071), replicate 3 [8]: 86.4168; Antibacterial activity (in words) ([9]; M. luteus DSM 20030, growth after 48 h): able to decrease the growth; Bacterial growth relative to medium, M. luteus, replicate 1 [9]: 48.8727; Bacterial growth relative to medium, M. luteus, replicate 2 [9]: 93.5811; Bacterial growth relative to medium, M. luteus, replicate 3 [9]: 47.3458; Viability of infected cells relative to aprotinin, Replicate 1 (A/Hamburg/05/2009 (H1N1)): 0.03111; Viability of infected cells relative to aprotinin, Replicate 2 (A/Hamburg/05/2009 (H1N1)): 0.02825; Viability of infected cells relative to aprotinin, Replicate 3 (A/Hamburg/05/2009 (H1N1)): 0.01475 |
| SLFGLLDLVKNKVGQTGLL [LS-AMP-A2] | 0.03127 | 0.04494 | 0.06464 | 128.192 | 150.174 | 124.918 | 64.5445 | 72.5374 | 62.225 | limited activity | 0.05065 | 0.0432 | 88.0937 | 87.9986 | 104.003 | 66.982 | 116.711 | 86.9442 | 112.577 | 143.959 | Antibacterial activity (in words) ([3]; P. aeruginosa DSM 1117, growth after 48 h): less effective; Viability of infected cells relative to aprotinin, Replicate 3 (A/Hessen/1/2003 (H3N2)): 0.03436; Antibacterial activity (in words) [6]: less effective; Bacterial growth relative to medium, S. epidermidis, replicate 3 [7]: 90.9149; Bacterial growth relative to medium, P. aeruginosa (50071), replicate 1 [8]: 100.368; Bacterial growth relative to medium, P. aeruginosa (50071), replicate 2 [8]: 113.753; Bacterial growth relative to medium, P. aeruginosa (50071), replicate 3 [8]: 87.799; Bacterial growth relative to medium, M. luteus, replicate 1 [9]: 118.679; Bacterial growth relative to medium, M. luteus, replicate 2 [9]: 181.194; Bacterial growth relative to medium, M. luteus, replicate 3 [9]: 65.5667; Viability of infected cells relative to aprotinin, Replicate 1 (A/Hamburg/05/2009 (H1N1)): 0.06714; Viability of infected cells relative to aprotinin, Replicate 2 (A/Hamburg/05/2009 (H1N1)): 0.03978; Viability of infected cells relative to aprotinin, Replicate 3 (A/Hamburg/05/2009 (H1N1)): 0.06798; Viability of infected cells relative to aprotinin, Replicate 4 (A/Hamburg/05/2009 (H1N1); […], replicate 4 (additional internal control)): 0.02665; Viability of infected cells relative to aprotinin, Replicate 5 (A/Hamburg/05/2009 (H1N1); […], replicate 5 (additional internal control)): 0.03333 |

From paper PMC10221074, “Functional Profiling of the A-Family of Venom Peptides from the Wolf Spider Lycosa shansia” (Toxins, 2023)
